Like-named read-outs stand apart in the source and are kept apart here.
Key:
USP28 = target: T1, USP28 (Homo sapiens, UniProt Q96RU2); assay: USP28 activity measured using ubiquitin-rhodamine 110 method; assay type: biochemical; conditions: for IC50: purified USP28 4 nM, ubiquitin-rhodamine 110 125 nM, 30 min preincubation; for IC50(F)/IC50(E) USP28: ratio of IC50 of related 3-NH2 compound (F) to IC50 of 3-NHMe compound disclosed herein (E)
T1 construct: purchased R&D Systems
T1 sequence (Q96RU2 1-1077): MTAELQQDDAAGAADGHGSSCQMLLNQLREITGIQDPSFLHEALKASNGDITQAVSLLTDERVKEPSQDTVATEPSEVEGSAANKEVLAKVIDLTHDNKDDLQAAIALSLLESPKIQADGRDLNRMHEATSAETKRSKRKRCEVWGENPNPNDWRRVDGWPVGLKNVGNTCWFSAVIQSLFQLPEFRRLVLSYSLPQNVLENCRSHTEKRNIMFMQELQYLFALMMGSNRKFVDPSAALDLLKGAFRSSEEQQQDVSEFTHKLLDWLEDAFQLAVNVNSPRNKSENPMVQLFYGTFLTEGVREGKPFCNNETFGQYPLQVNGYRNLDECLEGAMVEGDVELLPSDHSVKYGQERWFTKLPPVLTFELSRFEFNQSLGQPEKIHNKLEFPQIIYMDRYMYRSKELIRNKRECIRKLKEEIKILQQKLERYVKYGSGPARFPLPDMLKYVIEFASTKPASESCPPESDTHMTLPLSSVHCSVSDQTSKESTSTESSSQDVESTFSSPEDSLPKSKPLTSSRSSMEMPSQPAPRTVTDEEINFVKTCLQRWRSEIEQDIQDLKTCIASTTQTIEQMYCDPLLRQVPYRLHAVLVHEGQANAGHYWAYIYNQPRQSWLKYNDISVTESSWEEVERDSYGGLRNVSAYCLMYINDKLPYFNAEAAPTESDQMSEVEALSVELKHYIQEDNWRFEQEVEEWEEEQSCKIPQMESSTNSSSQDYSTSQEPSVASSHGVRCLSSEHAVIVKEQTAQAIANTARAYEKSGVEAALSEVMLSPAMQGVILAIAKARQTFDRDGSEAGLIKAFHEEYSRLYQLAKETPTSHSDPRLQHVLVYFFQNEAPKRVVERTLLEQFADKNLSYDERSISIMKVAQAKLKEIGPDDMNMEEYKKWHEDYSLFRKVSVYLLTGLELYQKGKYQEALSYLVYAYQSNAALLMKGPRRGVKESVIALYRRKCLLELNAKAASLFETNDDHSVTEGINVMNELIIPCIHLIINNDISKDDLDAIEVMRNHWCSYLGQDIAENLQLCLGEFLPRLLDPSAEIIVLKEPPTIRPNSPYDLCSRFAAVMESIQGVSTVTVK
Method: USP28 activity was measured using ubiquitin-rhodamine 110 method.
(§1) Purified USP28 and the ubiquitin-rhodamine 110 substrate used for measuring DUBs activity were both from R&D Systems. Test compounds were first dissolved in DMSO to prepare a 10 mM stock solution, and then the stock solution was diluted with a buffer solution [containing 20 mM Tris-HCl (pH 8.0), 2 mM CaCl2), 3 mM BME, 0.01% Prionix, 0.01% Triton X-100] to the desired concentration (with DMSO content less than or equal to 0.5%). The dilution was mixed well with USP28 (final concentration 4 nM) in a 96-well plate and incubated at room temperature for 30 min, and then added with the substrate (ubiquitin-rhodamine 110) to 125 nM. The final volume of the whole reaction system was 20 μL. The released fluorescence (excitation wavelength 485 nm, emission wavelength 535 nm) was detected immediately on a microplate reader after the addition of the substrate. The inhibitory rate of the test compound against USP28 was calculated according to the following formula: Inhibition %=1−[(test compound+fluorescence value of substrate−fluorescence value of test compound (no substrate))/mean fluorescence value of DMSO control group−fluorescence value of test compound (no substrate)]
According to the inhibitory rates of the test compound against USP28 under different concentrations, IC50 was calculated.

USP25 = target: T2, USP25 (Homo sapiens, UniProt Q9UHP3); assay: USP25 activity measured using ubiquitin-rhodamine 110 method; assay type: biochemical; conditions: for IC50: purified USP25 15 nM, ubiquitin-rhodamine 110 125 nM, 30 min preincubation; for IC50(F)/IC50(E) USP25: ratio of IC50 of related 3-NH2 compound (F) to IC50 of 3-NHMe compound disclosed herein (E)
T2 construct: purchased R&D Systems
T2 sequence (Q9UHP3 1-1055): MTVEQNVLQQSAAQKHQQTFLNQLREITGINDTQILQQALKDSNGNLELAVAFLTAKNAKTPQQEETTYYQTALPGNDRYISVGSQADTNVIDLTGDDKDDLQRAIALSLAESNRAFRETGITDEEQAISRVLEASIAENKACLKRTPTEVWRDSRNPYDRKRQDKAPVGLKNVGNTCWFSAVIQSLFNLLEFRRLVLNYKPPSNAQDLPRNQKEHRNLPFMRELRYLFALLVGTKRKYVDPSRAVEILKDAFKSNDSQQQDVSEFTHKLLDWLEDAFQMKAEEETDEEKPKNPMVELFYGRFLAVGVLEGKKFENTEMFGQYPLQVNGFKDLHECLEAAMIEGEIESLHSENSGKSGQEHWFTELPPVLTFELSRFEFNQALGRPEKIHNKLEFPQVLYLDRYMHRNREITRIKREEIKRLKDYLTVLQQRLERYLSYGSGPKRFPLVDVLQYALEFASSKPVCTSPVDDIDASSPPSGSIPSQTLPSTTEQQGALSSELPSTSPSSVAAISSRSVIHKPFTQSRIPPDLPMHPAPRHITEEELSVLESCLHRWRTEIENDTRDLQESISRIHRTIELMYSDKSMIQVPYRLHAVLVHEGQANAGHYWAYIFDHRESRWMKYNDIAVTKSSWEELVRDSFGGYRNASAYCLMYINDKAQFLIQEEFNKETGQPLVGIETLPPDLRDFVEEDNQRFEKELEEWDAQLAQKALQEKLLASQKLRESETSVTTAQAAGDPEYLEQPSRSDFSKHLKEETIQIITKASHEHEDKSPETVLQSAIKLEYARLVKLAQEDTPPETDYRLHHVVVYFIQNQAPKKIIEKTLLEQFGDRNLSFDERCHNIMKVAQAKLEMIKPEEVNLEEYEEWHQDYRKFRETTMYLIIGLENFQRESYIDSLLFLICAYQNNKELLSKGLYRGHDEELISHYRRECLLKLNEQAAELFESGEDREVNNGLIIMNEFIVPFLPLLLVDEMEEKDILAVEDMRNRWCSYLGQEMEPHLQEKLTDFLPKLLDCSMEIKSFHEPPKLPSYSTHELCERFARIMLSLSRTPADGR
Method: USP25 activity was measured using ubiquitin-rhodamine 110 method.
as §1, with “Purified USP25” for “Purified USP28”, “with USP25” for “with USP28”, “concentration 15” for “concentration 4”, “the substrate, and the” for “the substrate. The”, “against USP25” for “against USP28”
As in Example 11, according to the inhibitory rates of the test compound against USP25 under different concentrations, IC50 was calculated.

[1] = Inhibitory activity against USP28 (IC50)
[2] = read-out: Inhibitory activity against USP25 (IC50)
[3] = read-out: Inhibitory activity against USP28 (IC50)
[4] = Inhibitory activity against USP25 (IC50)

Compound	IC50 (USP28; [1]) [µM]	IC50 (USP25; [2]) [µM]	IC50 (USP28; [3]) [µM]	IC50(F)/IC50(E) USP28 (USP28)	IC50 (USP25; [4]) [µM]	IC50(F)/IC50(E) USP25 (USP25)
CNc1c(C(=O)NC2COc3cc(N4CC5CCC(C4)N5)ccc3C2)sc2nc(C)cnc12 (single isomer, unassigned) [Compound I-87]	< 0.1	0.1 to 1	–	–	–	–
CNc1c(C(=O)NC2COc3cc(N4CC5CCC(C4)N5)ccc3C2)sc2nc(C)cnc12 (single isomer, unassigned) [Compound I-88]	–	1 to 5	1 to 5	–	–	–
CNc1c(C(=O)NCCc2ccc(N3C[C@H]4CC[C@@H](C3)N4)cc2)sc2nc(C)ccc12 [Compound I-1, N-4-(3,8-diazabicyclo[3.2.1]octan-3-yl)phenethyl-6-methyl-3-methylaminothiophene[2,3-b]pyridine-2-carboxamide]	< 0.1	–	–	18.75	< 0.1	>20
CNc1c(C(=O)NCCc2ccc(N3CCNCC3)cc2)sc2nc(C)ccc12 [Compound I-2]	–	0.1 to 1	0.1 to 1	–	–	–
CNc1c(C(=O)NCCc2ccc(C3CCNCC3)cc2)sc2nc(C)ccc12 [Compound I-3]	–	0.1 to 1	< 0.1	–	–	–
CNc1c(C(=O)NCCc2ccc(C3CC4CCC(C3)N4)cc2)sc2nc(C)ccc12 (stereo not shown) [Compound I-4]	< 0.1	–	–	–	< 0.1	–
CNc1c(C(=O)NCCc2ccc(C3C4CCC3CNC4)cc2)sc2nc(C)ccc12 (stereo not shown) [Compound I-5]	–	< 0.1	< 0.1	–	–	–
CNc1c(C(=O)NCCc2ccc(N3C4CCC3CNC4)cc2)sc2nc(C)ccc12 [Compound I-6]	< 0.1	–	–	–	< 0.1	–
CNc1c(C(=O)NCCc2ccc(C3CC4CC3CN4)cc2)sc2nc(C)ccc12 (stereo not shown) [Compound I-7]	–	0.1 to 1	< 0.1	–	–	–
CNc1c(C(=O)NCCc2ccc(N3CC4CC3CN4)cc2)sc2nc(C)ccc12 (stereo not shown) [Compound I-8]	–	< 0.1	< 0.1	–	–	–
CNc1c(C(=O)NCCc2ccc(N3C[C@H]4CC[C@@H](C3)N4)cc2)sc2ncccc12 [Compound I-9]	< 0.1	0.1 to 1	–	9.2	–	>10
CCc1ccc2c(NC)c(C(=O)NCCc3ccc(N4C[C@H]5CC[C@@H](C4)N5)cc3)sc2n1 [Compound I-10]	< 0.1	1 to 5	–	–	–	–
CCCc1ccc2c(NC)c(C(=O)NCCc3ccc(N4C[C@H]5CC[C@@H](C4)N5)cc3)sc2n1 [Compound I-11]	< 0.1	> 10	–	–	–	–
CNc1c(C(=O)NCCc2ccc(N3C[C@H]4CC[C@@H](C3)N4)cc2)sc2nc(C(C)C)ccc12 [Compound I-12]	< 0.1	5 to 10	–	–	–	–
CCCCc1ccc2c(NC)c(C(=O)NCCc3ccc(N4C[C@H]5CC[C@@H](C4)N5)cc3)sc2n1 [Compound I-13]	< 0.1	> 10	–	–	–	–
CNc1c(C(=O)NCCc2ccc(N3C[C@H]4CC[C@@H](C3)N4)cc2)sc2nc(CC(C)C)ccc12 [Compound I-14]	< 0.1	> 10	–	–	–	–
CNc1c(C(=O)NCCc2ccc(N3C[C@H]4CC[C@@H](C3)N4)cc2)sc2nc(C3CC3)ccc12 [Compound I-15]	< 0.1	1 to 5	–	–	–	–
CNc1c(C(=O)NCCc2ccc(N3C[C@H]4CC[C@@H](C3)N4)cc2)sc2nc(C(F)(F)F)ccc12 [Compound I-16]	–	1 to 5	0.1 to 1	–	–	–
CNc1c(C(=O)NCCc2ccc(N3C[C@H]4CC[C@@H](C3)N4)cc2)sc2nc(OC)ccc12 [Compound I-17]	–	0.1 to 1	0.1 to 1	–	–	–
CNc1c(C(=O)NCCc2ccc(N3C[C@H]4CC[C@@H](C3)N4)cc2)sc2ncc(F)cc12 [Compound I-18]	–	> 10	0.1 to 1	–	–	–
CNc1c(C(=O)NCCc2ccc(N3C[C@H]4CC[C@@H](C3)N4)cc2)sc2ncc(C)cc12 [Compound I-19]	–	> 10	1 to 5	–	–	–
CNc1c(C(=O)NCCc2ccc(N3C[C@H]4CC[C@@H](C3)N4)cc2)sc2nccc(C)c12 [Compound I-20]	–	0.1 to 1	0.1 to 1	–	–	–
CNc1c(C(=O)NCCc2ccc(N3C[C@H]4CC[C@@H](C3)N4)cc2)sc2nccc(C(F)(F)F)c12 [Compound I-21]	–	1 to 5	0.1 to 1	–	–	–
CNc1c(C(=O)NCCc2ccc(N3C[C@H]4CC[C@@H](C3)N4)cc2)sc2nc(CO)ccc12 [Compound I-22]	–	0.1 to 1	0.1 to 1	–	–	–
CCNc1c(C(=O)NCCc2ccc(N3C[C@H]4CC[C@@H](C3)N4)cc2)sc2nc(C)ccc12 [Compound I-23]	–	5 to 10	0.1 to 1	–	–	–
CCCNc1c(C(=O)NCCc2ccc(N3C[C@H]4CC[C@@H](C3)N4)cc2)sc2nc(C)ccc12 [Compound I-24]	–	> 10	0.1 to 1	–	–	–
Cc1ccc2c(NCCN(C)C)c(C(=O)NCCc3ccc(N4C[C@H]5CC[C@@H](C4)N5)cc3)sc2n1 [Compound I-25]	–	> 10	5 to 10	–	–	–

Reference: US12486284B2, “Ubiquitin-specific protease inhibitor and preparation method therefor and use thereof” (CHASER THERAPEUTICS, INC., priority 2019, dated 2025)
